US20130203097A1 (priority 2010, published 2013)
*: point of attachment. pNA = O=[N+]([O-])c1ccc(N*)cc1; MeOSuc = COC(=O)CCC(=O)*

Experiments:
[1] = test system: other species of Legionella; conditions: cited from earlier work
[2] = test system: strains of Legionella pneumophila; conditions: out of 283 strains of Legionella pneumophila tested; cited from earlier work
[3] = test system: Pseudomonas aeruginosa; conditions: cited from earlier work
[4] = test system: CC(=O)N[C@@H](CO)C(=O)N[C@@H](CCCCN)C(=O)NCC(=O)N[C@@H](Cc1ccc2ccc3cccc4ccc1c2c34)C(=O)N[C@@H](Cc1ccc(O)c([N+](=O)[O-])c1)C(=O)NCC(=O)NCC(=O)N[C@@H](CCCCN)C(N)=O; test: purified protein, by the assay type; conditions: pH 7.0; 37.0 °C

Substance | species that responded positively [1] | strains that degraded the substrate [2] | Pseudomonas aeruginosa that responded positively [3] | Km [4] | kcat [4]
MeOSuc-Arg-Pro-Tyr-pNA [Compound S-2586] | 2 | 282 | 22 |  | 
Msp (Legionella pneumophila) |  |  |  | 6.8 ± 0.6 µM | 23.9 ± 0.7 s⁻¹
